Reference: PubChem BioAssay (NCI)
“And” between values parts separate entries of the source, which are not always exact repeats. Identical values can stand only once.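 Exposure lasted 48 hours, with cells grown in 96-well plates and compounds tested at five concentrations. At the GI50, growth is halved. The concentration for full growth arrest is given as TGI.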

Assays:
Assay in all cases: DTP human tumour cell line panel, 48 h
SR leukemia = test system: SR leukemia
EKVX NSCLC = test system: EKVX NSCLC
KM12 colon = test system: KM12 colon
NCI-H460 lung = test system: NCI-H460 lung
HCC-2998 colon = test system: HCC-2998 colon
K-562 leukemia = test system: K-562 leukemia
MOLT-4 leukemia = test system: MOLT-4 leukemia
SF-295 CNS = test system: SF-295 CNS
MDA-MB-435 = test system: MDA-MB-435
NCI-H522 lung = test system: NCI-H522 lung

SMILES	GI50 (SR leukemia)	TGI (SR leukemia)	GI50 (EKVX NSCLC) [µM]	TGI (EKVX NSCLC)	GI50 (KM12 colon)	TGI (KM12 colon)	GI50 (NCI-H460 lung)	TGI (NCI-H460 lung)	GI50 (HCC-2998 colon) [µM]	TGI (HCC-2998 colon)	GI50 (K-562 leukemia)	TGI (K-562 leukemia) [µM]	GI50 (MOLT-4 leukemia)	TGI (MOLT-4 leukemia) [µM]	GI50 (SF-295 CNS) [µM]	TGI (SF-295 CNS)	GI50 (MDA-MB-435) [µM]	TGI (MDA-MB-435)	GI50 (NCI-H522 lung)	TGI (NCI-H522 lung)
Cc1cc(C(=O)Nc2cc(Oc3ccc4nc(NC(=O)C5CC5)cn4n3)ccc2C)n(C)n1	2.26 µM	> 10 µM	> 10	> 10 µM	> 10 µM	> 10 µM	> 10 µM	> 10 µM	> 10	> 10 µM	0.555 µM	> 10	> 10 µM	> 10	> 10	> 10 µM	3.22	> 10 µM	> 10 µM	> 10 µM
Clc1ccccc1[C@@H]1C[C@@H]2Cc3cc(Br)c4ccccc4c3N1O2	3.33 µM	> 100 µM	23.3	> 100 µM	4.23 µM	> 100 µM	4.08 µM	> 100 µM	4.19	> 100 µM	3.92 µM	> 100	6.94 µM	> 100	3.49	> 100 µM	2.08	20.4 µM	2.31 µM	6.51 µM
CC/C=C\C[C@H](O)C/C=C1/C(=O)C=C[C@@H]1C/C=C\CCCC(=O)OC(C)C	0.896 µM	5.01 µM	3.04	11.6 µM	1.36 µM	3.08 µM	1.68 µM	3.97 µM	1.87	3.38 µM	0.391 µM	20.7	1.24 µM	6.36	2.91	8.34 µM	0.572	2.7 µM	1.25 µM	2.88 µM
O=C(O)/C=C/c1ccc[c]([Sb](=[O])([OH])[OH])c1	> 100 µM	> 100 µM	> 100	> 100 µM	> 100 µM	> 100 µM	> 100 µM	> 100 µM	> 100	> 100 µM	> 100 µM	> 100	> 100 µM	> 100	> 100	> 100 µM	> 100	> 100 µM	> 100 µM	> 100 µM
Cc1ccc2[nH]c3c(c2c1)N=c1ccccc1=NO3	33.4 µM	> 100 µM	26.2	> 100 µM	34.8 µM	> 100 µM	45.9 µM	> 100 µM	81.7	> 100 µM	> 100 µM	> 100	> 100 µM	> 100	23.8	84.9 µM	> 100	> 100 µM	26 µM	> 100 µM
COc1ccc(C(C#N)=C2C=CC(=NO)C=C2)cc1	3.53 µM	> 100 µM	17.6	32.7 µM	1.79 µM	4.04 µM	3.17 µM	12 µM	16.1	29.7 µM	7.26 µM	> 100	4.58 µM	> 100	4.8	17.1 µM	2.23	5.8 µM	1.23 µM	3.41 µM
COC1CC(C)C(OC)c2cc(O)cc(c2O)NC(=O)/C(C)=C/C=C\C(C)C(OC(N)=O)/C(C)=C\C(C)C1OC (configuration not stated)	0.191 µM and 0.11 µM	2 µM and 6.31 µM	7.95	25 µM and 22.9 µM	0.111 µM and 0.184 µM	1.9 µM and 2.83 µM	0.348 µM and 0.42 µM	18.4 µM and 8.56 µM	0.318	9.78 µM and 11.3 µM	0.0333 µM and 0.143 µM and 0.0785 µM	–	0.0437 µM and 0.0746 µM	–	0.665	9.09 µM and 8.02 µM	–	32.2 µM and 6.1 µM	0.0575 µM and 0.0989 µM	0.683 µM and 0.913 µM
CCCCC[C@H]1CC=C2C(=O)C=C[C@@H]2CC=CCCCC(=O)O[C@@H](CCCCC)CC=C2C(=O)C=C[C@@H]2CC=CCCCC(=O)O[C@@H](CCCCC)CC=C2C(=O)C=C[C@@H]2CC=CCCCC(=O)O1	0.229 µM	1.34 µM	0.414	6.31 µM	0.31 µM	1.22 µM	0.488 µM	2.87 µM	0.264	0.888 µM	0.317 µM	> 8.75	0.266 µM	> 8.75	0.432	5.13 µM	0.183	0.526 µM	0.218 µM	0.797 µM
CC(CN(C)C)S(=O)(=O)c1ccc(-c2cnc(N)c(C(=O)Nc3ccccc3)n2)cc1 (configuration not stated)	1.39 µM	8.53 µM	31.1	> 100 µM	11.1 µM	28.7 µM	2.95 µM	22.2 µM	0.973	16.6 µM	3 µM	22	3.15 µM	14.2	8.49	25.7 µM	4.51	23.8 µM	17.5 µM	35.9 µM
COc1cccc(-n2ncc3c(N/N=C/c4ccc(C)cc4)ncnc32)c1	> 14.4 µM	> 25 µM	> 25	> 25 µM	> 25 µM	> 25 µM	> 25 µM	> 25 µM	> 25	> 25 µM	> 25 µM	> 25	> 25 µM	> 25	> 25	> 25 µM	> 22.4	> 25 µM	> 25 µM	> 25 µM
CCCCCCCN(CCCCCCC)C(=N)c1ccnc2ccccc12	1.01 µM	2.96 µM	1.59	3.15 µM	1.82 µM	3.49 µM	1.69 µM	3.27 µM	1.42	2.77 µM	1.27 µM	3.48	1.7 µM	4.4	1.69	3.45 µM	1.58	3.24 µM	1.65 µM	3.41 µM
O=C1NC(O)c2ccccc2O1 (configuration not stated)	–	> 100 µM	–	> 100 µM	–	> 100 µM	–	> 100 µM	–	> 100 µM	–	> 100	–	> 100	–	> 100 µM	–	> 100 µM	–	> 100 µM
C=C1C(=O)O[C@H]2[C@H]1CC/C(Cn1cc(Cc3c[nH]c4ccccc34)nn1)=C\CC[C@@]1(C)O[C@@H]21	0.389 µM	8.32 µM	1.84	3.98 µM	2.34 µM	4.99 µM	3.51 µM	10.6 µM	2.18	3.92 µM	1.81 µM	6.14	2.29 µM	6.04	4.71	17.2 µM	1.73	3.46 µM	1.43 µM	3 µM
